Here are results for 2 molecules from ChEMBL document CHEMBL1140362, “Novel iron-specific fluorescent probes” (Bioorg Med Chem Lett, 2005).

Series [1] in a line: Permeability parameter across human erythrocyte ghost membrane was determined by using fluorescence intensity of 10 uM in absence of Diethylenetriamine-penta acetic acid (DTPA). The series is classed as ADME. The conditions noted are these: erythrocytes.
Series [2] can be described thus: The fluorescent suspension followed by time was estimated in the absence of Diehtylenetriamine-penta acetic acid. The series is classed as functional.
The next series is filed under the species Homo sapiens. The experiment in a line: The fluorescent suspension followed by time was estimated in the presence of Diehtylenetriamine-penta acetic acid. The series is classed as functional.
Series [3] is described as follows: Permeability parameter across human erythrocyte ghost membrane was determined by using fluorescence intensity of 10 uM in presence of Diethylenetriamine-penta acetic acid (DTPA). The series is classed as ADME. The conditions noted are these: erythrocytes.

Values joined by “and” are separate entries in the source; they are usually repeats but may differ in a detail not shown here. Equal values may be shown once.

For `O=C1NCCn2cc(O)c(=O)cc21`, the Fluorescence is 127 a.u and 65 a.u in series [1]; 117 a.u in series [3]. For the same molecule, the TIME is 0.03 h and 0.0786 h in series [2]; 0.0353 h in the series listed under Homo sapiens.
For the molecule `Cc1cc2[nH]c(=O)c3cc(=O)c(O)cn3c2cc1C`, in the series listed under Homo sapiens, the TIME is 0.00667 h. In addition, the Fluorescence in series [3] worked out at 252 a.u.
